PubChem BioAssay AID248 (DTP/NCI, 2004)
Values joined by “and” are separate entries in the source; they are usually repeats but may differ in a detail not shown here. Equal entries are not always repeated. Inconclusive results and toxic doses are left out.

Test system: L1210 leukemia ip in BDF1 mice, survival T/C
Assay: NCI In Vivo Anticancer Drug Screen. Data for tumor model L1210 Leukemia (intraperitoneal) in B6D2F1 (BDF1) mice
Settings: endpoint: mean survival time, higher = longer survival
How it was run: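 Mice bearing the transplanted tumor received compound or vehicle. Survival of the treated group was divided by that of the vehicle-treated control group to give the ratio.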

[1] = dose: 25.0 mg/kg/injection, schedule: Q04DX003 (ip), vehicle: Klucel (hydroxypropylcellulose) (HPC)
[2] = dose: 100.0 mg/kg/injection, schedule: Q04DX002 (ip), vehicle: saline
[3] = dose: 200.0 mg/kg/injection, schedule: Q04DX002 (ip), vehicle: saline
[4] = dose: 400.0 mg/kg/injection, schedule: Q04DX002 (ip), vehicle: saline
[5] = dose: 100.0 mg/kg/injection, schedule: Q01DX001 (ip), vehicle: saline
[6] = dose: 200.0 mg/kg/injection, schedule: Q01DX001 (ip), vehicle: saline
[7] = dose: 400.0 mg/kg/injection, schedule: Q01DX001 (ip), vehicle: saline
[8] = dose: 100.0 mg/kg/injection, schedule: Q01DX009 (ip), vehicle: saline with Tween-80
[9] = dose: 200.0 mg/kg/injection, schedule: Q01DX009 (ip), vehicle: saline with Tween-80
[10] = dose: 100.0 mg/kg/injection, schedule: Q04DX002 (ip), vehicle: Klucel (hydroxypropylcellulose) (HPC)
[11] = dose: 200.0 mg/kg/injection, schedule: Q04DX002 (ip), vehicle: Klucel (hydroxypropylcellulose) (HPC)
[12] = dose: 100.0 mg/kg/injection, schedule: Q01DX009 (ip), vehicle: Klucel (hydroxypropylcellulose) (HPC)
[13] = dose: 400.0 mg/kg/injection, schedule: Q01DX009 (ip), vehicle: Klucel (hydroxypropylcellulose) (HPC)
[14] = dose: 200.0 mg/kg/injection, schedule: Q01DX009 (ip), vehicle: Klucel (hydroxypropylcellulose) (HPC)
[15] = dose: 100.0 mg/kg/injection, schedule: Q04DX003 (ip), vehicle: saline
[16] = dose: 200.0 mg/kg/injection, schedule: Q04DX003 (ip), vehicle: saline
[17] = dose: 400.0 mg/kg/injection, schedule: Q04DX003 (ip), vehicle: saline
[18] = dose: 75.0 mg/kg/injection, schedule: Q01DX001 (ip), vehicle: saline
[19] = dose: 150.0 mg/kg/injection, schedule: Q01DX001 (ip), vehicle: saline
[20] = dose: 300.0 mg/kg/injection, schedule: Q01DX001 (ip), vehicle: saline

For `CC[N+](C)(CC)CCN1C(=O)c2ccccc2S1(=O)=O`, the T/C (dose: 44.0 mg/kg/injection, schedule: Q01DX Z (ip), vehicle: saline) was 108 % of control and the T/C (dose: 66.0 mg/kg/injection, schedule: Q01DX Z (ip), vehicle: saline) was 98 % of control.

With `Cc1c[n+]([O-])ccc1N=Nc1ccc(N(C)C)cc1` the T/C [1] was 104 % of control, the T/C (dose: 50.0 mg/kg/injection, schedule: Q04DX003 (ip), vehicle: Klucel (hydroxypropylcellulose) (HPC)) was 110 % of control and the T/C (dose: 100.0 mg/kg/injection, schedule: Q04DX003 (ip), vehicle: Klucel (hydroxypropylcellulose) (HPC)) was 106 % of control and 107 % of control.

In the case of `CNCC(O)c1cc(OC)c(OC)c(OC)c1` (configuration not stated), the T/C [2] is reported as 102 % of control, the T/C [3] is reported as 93 % of control and the T/C [4] is reported as 96 % of control.

`CCC1([N+](=O)[O-])COP(=O)(OC(=O)c2ccc([N+](=O)[O-])cc2)OC1` (configuration not stated) was tested, and the T/C [5] was 91 % of control, the T/C [6] was 91 % of control and the T/C [7] was 92 % of control.

For `CCOC(=O)c1[nH]c(C)c(C(C)=O)c1C`, the T/C [8] was 92 % of control, the T/C [9] was 97 % of control and the T/C (dose: 400.0 mg/kg/injection, schedule: Q01DX009 (ip), vehicle: saline with Tween-80) was 100 % of control.

`CC(C)(C)OC(=O)NC(Cc1ccccc1)C(=O)O` (configuration not stated) was tested, and the T/C [5] was 100 % of control, the T/C [6] was 94 % of control and the T/C [7] was 93 % of control.

`COC(=O)/C(=C/c1ccccc1)CBr` was tested, and the T/C (dose: 50.0 mg/kg/injection, schedule: Q01DX009 (ip), vehicle: saline with Tween-80) was 94 % of control and the T/C [8] was 102 % of control.

In the case of `CCOC(=O)C(Nc1cccc2ccccc12)C(=O)OCC`, the T/C [10] is reported as 105 % of control, the T/C [11] is reported as 103 % of control and the T/C (dose: 400.0 mg/kg/injection, schedule: Q04DX002 (ip), vehicle: Klucel (hydroxypropylcellulose) (HPC)) is reported as 100 % of control.

For `OC[CH2][Hg][I]`, the T/C (dose: 1.56 mg/kg/injection, schedule: Q01DX009 (ip), vehicle: Klucel (hydroxypropylcellulose) (HPC)) was 88 % of control and the T/C (dose: 6.25 mg/kg/injection, schedule: Q01DX009 (ip), vehicle: Klucel (hydroxypropylcellulose) (HPC)) was 93 % of control.

`CSc1ccc(C(=O)CCl)c(C)c1` was tested, and the T/C (dose: 50.0 mg/kg/injection, schedule: Q01DX001 (ip), vehicle: carboxymethylcellulose (CMC)) was 94 % of control.

With `C=CCN(C)N=Nc1ccccc1C(N)=O` the T/C (dose: 88.0 mg/kg/injection, schedule: Q01DX009 (ip), vehicle: saline with Tween-80) was 158 % of control, the T/C (dose: 88.0 mg/kg/injection, schedule: Q04DX003 (ip), vehicle: saline with Tween-80) was 122 % of control and the T/C (dose: 100.0 mg/kg/injection, schedule: Q04DX003 (ip), vehicle: saline with Tween-80) was 116 % of control. The T/C (dose: 133.0 mg/kg/injection, schedule: Q01DX009 (ip), vehicle: saline with Tween-80) was 150 % of control, the T/C (dose: 176.0 mg/kg/injection, schedule: Q01DX001 (ip), vehicle: saline with Tween-80) was 109 % of control and the T/C [9] was 95 % of control.

For `CCOC(=O)CC1(C)NC(C(=O)O)C(C)(C)S1` (configuration not stated), the T/C [12] was 97 % of control and the T/C [13] was 97 % of control.

With `CC(=O)Nc1ccc(/C=N\NC(=O)Nc2ccccc2)cc1` the T/C [12] was 90 % of control, the T/C [14] was 90 % of control and the T/C [13] was 91 % of control.

`CC(=O)NC(COC(C)=O)C1OC(C)(C)OC1C(COC(C)=O)OC(C)=O` (configuration not stated) was tested, and the T/C [5] was 101 % of control, the T/C [6] was 104 % of control and the T/C [7] was 98 % of control.

For `CC(=O)OCOC1C(COC(C)=O)OCOC(COC(C)=O)C1OCOC(C)=O` (configuration not stated), the T/C (dose: 100.0 mg/kg/injection, schedule: Q01DX001 (ip), vehicle: Klucel (hydroxypropylcellulose) (HPC)) was 103 % of control, the T/C (dose: 200.0 mg/kg/injection, schedule: Q01DX001 (ip), vehicle: Klucel (hydroxypropylcellulose) (HPC)) was 103 % of control and the T/C (dose: 400.0 mg/kg/injection, schedule: Q01DX001 (ip), vehicle: Klucel (hydroxypropylcellulose) (HPC)) was 110 % of control.

`CC(C)(N)CBr` was tested, and the T/C [2] was 100 % of control, the T/C [3] was 113 % of control and the T/C [4] was 95 % of control.

With `Cc1ccc(S(=O)(=O)N=S2CCCC2)cc1` the T/C [12] was 97 % of control, the T/C [14] was 102 % of control and the T/C [13] was 102 % of control.

In the case of `CC(C)=CCC1=C(O)C2=C(CCCC2)C(=O)C1=O`, the T/C (dose: 100.0 mg/kg/injection, schedule: Q01DX001 (ip), vehicle: water) is reported as 102 % of control, the T/C (dose: 200.0 mg/kg/injection, schedule: Q01DX001 (ip), vehicle: water) is reported as 106 % of control and the T/C (dose: 400.0 mg/kg/injection, schedule: Q01DX001 (ip), vehicle: water) is reported as 93 % of control.

In the case of `CCOC(=O)CSCc1cc(=O)[nH]c(=O)[nH]1`, the T/C [15] is reported as 96 % of control, the T/C [16] is reported as 98 % of control and the T/C [17] is reported as 102 % of control.

For `CCOC(=O)CC(C)=O.[Cu+2]`, the T/C (dose: 6.25 mg/kg/injection, schedule: Q01DX009 (ip), vehicle: saline) was 96 % of control, the T/C (dose: 12.5 mg/kg/injection, schedule: Q01DX009 (ip), vehicle: saline) was 104 % of control and the T/C (dose: 12.5 mg/kg/injection, schedule: Q04DX003 (ip), vehicle: Klucel (hydroxypropylcellulose) (HPC)) was 94 % of control. For the same molecule, the T/C (dose: 25.0 mg/kg/injection, schedule: Q01DX009 (ip), vehicle: saline) was 90 % of control and the T/C [1] was 96 % of control.

`CCOC(=N)c1ccc(P(=O)(O)O)cc1` was tested, and the T/C [18] was 97 % of control, the T/C [19] was 96 % of control and the T/C [20] was 102 % of control.

For `CCCCCCCCC(=O)Nc1ccc(O)cc1`, the T/C (dose: 100.0 mg/kg/injection, schedule: Q01DX009 (ip), vehicle: gum acacia) was 97 % of control, the T/C (dose: 100.0 mg/kg/injection, schedule: Q04DX003 (ip), vehicle: gum acacia) was 104 % of control and the T/C (dose: 200.0 mg/kg/injection, schedule: Q01DX009 (ip), vehicle: gum acacia) was 105 % of control. The T/C (dose: 200.0 mg/kg/injection, schedule: Q04DX003 (ip), vehicle: gum acacia) was 88 % of control, the T/C (dose: 400.0 mg/kg/injection, schedule: Q01DX009 (ip), vehicle: gum acacia) was 112 % of control and the T/C (dose: 400.0 mg/kg/injection, schedule: Q04DX003 (ip), vehicle: gum acacia) was 102 % of control.

`CCCCC(CCCC)(C(N)=O)C(=O)OCC` was tested, and the T/C [12] was 105 % of control, the T/C [14] was 100 % of control and the T/C [13] was 94 % of control.

In the case of `CCOc1ccc2nc(C)cc(C)c2c1`, the T/C [10] is reported as 98 % of control and the T/C [11] is reported as 112 % of control.

With `CC1CNC(=O)CC(C)O1` (configuration not stated) the T/C [15] was 108 % of control, the T/C [16] was 110 % of control and the T/C [17] was 104 % of control.

With `CC(=O)OC1C=CCC23C(=O)C=CC(=O)C12C(=O)c1ccccc1C3=O` (configuration not stated) the T/C (dose: 0.25 mg/kg/injection, schedule: Q04DX003 (ip), vehicle: water) was 95 % of control, the T/C (dose: 0.5 mg/kg/injection, schedule: Q04DX003 (ip), vehicle: water) was 100 % of control and the T/C (dose: 1.0 mg/kg/injection, schedule: Q04DX003 (ip), vehicle: water) was 102 % of control. For the same molecule, the T/C (dose: 2.0 mg/kg/injection, schedule: Q04DX003 (ip), vehicle: water) was 97 % of control, the T/C (dose: 4.0 mg/kg/injection, schedule: Q04DX003 (ip), vehicle: water) was 102 % of control and the T/C (dose: 8.0 mg/kg/injection, schedule: Q04DX003 (ip), vehicle: water) was 100 % of control. The T/C (dose: 16.0 mg/kg/injection, schedule: Q04DX003 (ip), vehicle: saline) was 102 % of control, the T/C (dose: 16.0 mg/kg/injection, schedule: Q04DX003 (ip), vehicle: water) was 97 % of control and the T/C (dose: 32.0 mg/kg/injection, schedule: Q04DX003 (ip), vehicle: saline) was 100 % of control. The T/C (dose: 64.0 mg/kg/injection, schedule: Q04DX003 (ip), vehicle: saline) was 100 % of control.

`O=C1NC2(CCC(O)CC2)C(O)(c2ccccc2)C12CCCCC2` (configuration not stated) was tested, and the T/C [18] was 105 % of control, the T/C [19] was 86 % of control and the T/C [20] was 86 % of control.

In the case of `CC1OC(OC2C(O)C(O)C(O)C(O)C2O)C(N)CC1N=C(N)C(=O)O` (configuration not stated), the T/C (dose: 100.0 mg/kg/injection, schedule: Q01DX001 (ip), vehicle: carboxymethylcellulose (CMC)) is reported as 90 % of control, the T/C (dose: 200.0 mg/kg/injection, schedule: Q01DX001 (ip), vehicle: carboxymethylcellulose (CMC)) is reported as 96 % of control and the T/C (dose: 400.0 mg/kg/injection, schedule: Q01DX001 (ip), vehicle: carboxymethylcellulose (CMC)) is reported as 100 % of control.
